Experimental data taken from patent publication US11370781B2, “Combination therapy for treating cancer” (Epizyme, Inc., priority 2012, dated 2022).
Entries after “also recorded” stand apart in the source; their conditions may differ. Like-named read-outs stand apart in the source and are kept apart here.

Tests used:
SU-DHL-10 cells = experiment: Anti-proliferative combination matrix, Cell Titer-Glo, SU-DHL-10; conditions: for synergy characterization (Chou-Talalay): drug combined with Compound 44; for enhancement of Compound 44 potency (fold IC50 shift): drug combined with Compound 44, top dose of drug, 4 days Compound 44 then 3 days combination
Protocol: (§7) The WSU-DLCL2 and SU-DHL-10 contain the Y641 EZH2 mutation, and the Toledo cell line contains WT EZH2.
(§8) Increasing doses of drugs were then added to the plates. […] After incubation for an additional 3 days cell viability of WSU-DLCL2 or SU-DHL-10 was measured using Promega Cell Titer-Glo reagent followed by luminescence detection. After 5 days viability of Toledo cells was measured using Promega Cell Titer-Glo reagent followed by luminescence detection.
(§9) First, raw luminescence values were converted to percent inhibition or fraction affected (Fa) calculated using controls for maximum inhibition and DMSO treated cells for minimum inhibition control located on each plate. Percent inhibition values for each constant ratio of compound combinations were entered into Calcusyn to determine the combination index values.

WSU-DLCL2 cells = experiment: Anti-proliferative combination matrix, Cell Titer-Glo, WSU-DLCL2; conditions: for synergy characterization (Chou-Talalay): drug combined with Compound 44; for enhancement of Compound 44 potency (fold IC50 shift): drug combined with Compound 44, top dose of drug, 4 days Compound 44 then 3 days combination
Protocol: as §7, §8, §9

Toledo cells = experiment: Anti-proliferative combination matrix, Cell Titer-Glo, Toledo; conditions: Toledo (WT EZH2); for combination benefit: drug combined with Compound 44, 6 days Compound 44 then 5 days combination
Protocol: as §7, §8, §9

[1] = Compound 44 plasma concentration in WSU-DLCL2 tumor-bearing mice, LC-MS/MS; conditions: 225 mg/kg BID
Protocol: On several days during the study mice were sampled in a pre-specified fashion. Sampling included non-terminal bleeds (0.25 mL) from the mandibular vein without anesthesia and full volume blood collection via terminal cardiac puncture under CO2 anesthesia. Blood samples were processed for plasma, with K2-EDTA as anti-coagulant. The plasma samples were frozen at −80° C. and stored prior to bioanalysis of compound levels.
Plasma samples were obtained on day 28 at 5 minutes prior to the last dose (“trough”) and 3 hours after the last dose (“post”).

H3K27me3 = experiment: Histone methylation status in WSU-DLCL2 xenograft tumors, Western blot and ELISA; assay type: in vivo, SCID mice; conditions: after 28 days of treatment
Protocol: Histones were extracted from tumor samples as described above. […] The plates were sealed and incubated overnight at 4° C. The following day, plates were washed 3× with 300 ul/well PBST (PBS+0.05% Tween 20; 10×PBST, KPL #51-14-02) on a Bio Tek plate washer. Plates were blocked with 300 ul/well of diluent (PBS+2% BSA+0.05% Tween 20), incubated at RT for 2 hours, and washed 3× with PBST. All antibodies were diluted in diluent. […] Plates were washed 4× with PBST. For detection, 100 ul/well of TMB substrate (BioFx Laboratories, #TMBS) was added and plates incubated in the dark at RT for 5 min. […] Absorbance at 450 nm was read on SpectaMax M5 Microplate reader.

RL cells = experiment: Cell viability of RL cells, Guava ViaCount and flow cytometry; assay type: cell-based, human; conditions: RL cells (EZH2 Y641N); for cell viability: single agent
Protocol: (§1) Cell viability was determined 4 days later using Millipore Guava ViaCount reagent and flow cytometry analysis. Percentage of cell viability was normalized to percentage of the DMSO-treated sample.

OCI-LY19 cell line = experiment: Cell viability of OCI-LY19 cells, Guava ViaCount and flow cytometry; assay type: cell-based, human; conditions: OCI-LY19 (wild-type EZH2); for cell viability: single agent
Protocol: as §1

[2] = system: WSU-DLCL2 human lymphoma cells; experiment: Efficacy study in WSU-DLCL2 xenograft model; assay type: in vivo; conditions: 28 days
Protocol: (§2) The animals were fed ad libitum water (reverse osmosis 1 ppm Cl) and NIH 31 Modified and Irradiated Lab Diet® consisting of 18.0% crude protein, 5.0% crude fat, and 5.0% crude fiber. The mice were housed on irradiated Enrich-o'cobs™ bedding in static microisolators on a 12-hour light cycle at 20-22° C. (68-72° F.) and 40-60% humidity. All procedures comply with the recommendations of the Guide for Care and Use of Laboratory Animals with respect to restraint, husbandry, surgical procedures, feed and fluid regulation, and veterinary care.
(§3) Human lymphoma cell lines were harvested during mid-log phase growth, and resuspended in PBS with 50% Matrigel™ (BD Biosciences). Each mouse received 1×10^7 cells (0.2 mL cell suspension) subcutaneously in the right flank. Tumors were calipered in two dimensions to monitor growth as the mean volume approached the desired 80-120 mm^3 range. Tumor size, in mm^3, was calculated from: […]
(§4) Compounds of Formula (IIa) were stored at room temperature and protected from light. On each treatment day, a fresh compound formulations were prepared by suspending the powders in 0.5% sodium carboxymethylcellulose (NaCMC) and 0.1% Tween® 80 in deionized water. […] Formulations were stored away from light at 4° C. prior to administration.
Several chemotherapeutica were used in parallel to Epizyme compounds. Cyclophosphamide (Baxter, Lot #016591), was reconstituted to 20 mg/mL with sterile saline and stored at 4° C. A fresh dosing solution was prepared for each dose by dilution with saline. Doxorubicin (Doxorubicin Meiji®, Meiji Pharmaceutical Co. Ltd., 1 mg/mL) was stored at 4° C. and diluted with saline on each treatment day. Vincristine (Hospira, Inc., 1 mg/mL) was diluted with saline on each treatment day. Prednisone (Boehringer Ingelheim GmbH, 1 mg/mL) was diluted with PBS at the beginning of each 5-day dosing cycle.
(§5) Mice were treated at compound doses ranging from 75-600 mg/kg and at TID (3 times a day every 8 h), BID (twice a day every 12 h) or QD (once a day) schedules for various amount of days by oral gavage or injections via the intravenous, intraperitoneal or subcutaneous routes. Each dose was delivered in a volume of 0.2 mL/20 g mouse (10 mL/kg), and adjusted for the last recorded weight of individual animals. The maximal treatment length was 28 days.
(§6) Treatment efficacy was determined on the last treatment day. MTV(n), the median tumor volume for the number of animals, n, evaluable on the last day, was determined for each group. Percent tumor growth inhibition (% TGI) can be defined several ways. First, the difference between the MTV(n) of the designated control group and the MTV(n) of the drug-treated group is expressed as a percentage of the MTV(n) of the control group: […]
Another way of calculating % TGI is taking the change of the tumor size from day 1 to day n into account with n being the last treatment day.
SCID mice were subcutaneously injected with 1×10^7 WSU-DLCL2 human lymphoma cells. […] Tumor volume was measured twice a week until the endpoint of 28 days.

[3] = system: SUDHL6 human lymphoma cells; experiment: Efficacy study in SUDHL6 xenograft model; assay type: in vivo, athymic nude mice; conditions: Compound 44 alone over the 28 day treatment
Protocol: as §2, §3
as §5, with “The maximal treatment length was 28 days.” left out

[4] = system: SUDHL10 human lymphoma cells; assay type: in vivo; conditions: 28 days
Protocol: as §2, §3, §4
Several chemotherapeutica were used in parallel to Epizyme compounds. […]
as §5, with “The maximal treatment length was 28 days.” left out
as §6, with “Percent tumor growth inhibition (% TGI) can be defined several ways.” left out

[5] = system: WSU-DLCL2 human lymphoma cells; experiment: Cell viability of WSU-DLCL2 cells, Guava ViaCount and flow cytometry; assay type: cell-based; conditions: for cell viability, combination with Compound 44: WSU-DLCL2
Protocol: The dosage schedule is depicted in FIG. 1A. […] After 4 days, cell viability was determined using Millipore Guava ViaCount Reagent and flow cytometry analysis.
Cell viability was determined by staining with Millipore Guava ViaCount Reagent and then analyzed by flow cytometry.
as §1

[6] = Compound 44 for 4 days, then Compound 44 plus agent for 4 days (FIG. 1A schedule)

## Nc1ccn([C@@H]2O[C@H](CO)[C@@H](O)[C@@H]2O)c(=O)n1 [AraC]
SU-DHL-10 cells
  synergy characterization (Chou-Talalay): Synergism
WSU-DLCL2 cells
  synergy characterization (Chou-Talalay): Synergism
Toledo cells
  combination benefit: no combination benefit; also recorded: No enhancement

## N.N.[Cl][Pt][Cl] [Cisplatin]
SU-DHL-10 cells
  synergy characterization (Chou-Talalay): synergism
WSU-DLCL2 cells
  synergy characterization (Chou-Talalay): Synergism
Toledo cells
  combination benefit: no combination benefit; also recorded: No enhancement

## CCN(c1cc(-c2ccc(CN3CCOCC3)cc2)cc(C(=O)NCc2c(C)cc(C)[nH]c2=O)c1C)C1CCOCC1 [Compound 44, N-((4,6-dimethyl-2-oxo-1,2-dihydropyridin-3-yl)methyl)-5-(ethyl (tetrahydro-2H-pyran-4-yl)amino)-4-methyl-4′-(morpholinomethyl)-[1,1′-biphenyl]-3-carboxamide]
[1]; day 28, 3 hours after the last dose
  Compound 44 plasma level, with CHOP vs single agent: significantly increased
[1]; day 28, trough (5 minutes prior to the last dose)
  Compound 44 plasma level, with CHOP vs single agent: not significantly different
H3K27me3; H3K27me3 normalized to total H3
  methylation of H3K27 in tumors, ELISA: inhibited
H3K27me3; all dosages and dosing schedules
  methylation of H3K27 in tumors, Western blot: inhibited
RL cells
  cell viability: does not result in a reduction in cell viability
OCI-LY19 cell line
  cell viability: does not affect cell viability; also recorded: do not show sensitivity
[2]; Compound 44 150 mg/kg TID
  % TGI from day 1: 73%
  % TGI from day 7: 86%
[2]; Compound 44 225 mg/kg BID
  % TGI from day 1: 71%
  % TGI from day 7: 80%
[2]; Compound 44 300 mg/kg BID
  % TGI from day 1: 57%
  % TGI from day 7: 67%
[2]; Compound 44 600 mg/kg QD
  % TGI from day 1: 58%
  % TGI from day 7: 70%
Toledo cells; Compound 44 alone
  sensitivity of cell viability: no sensitivity
[3]
  single agent efficacy: not observed
[4]; Compound 44 125 mg/kg BID
  % TGI from day 7: 57%
[4]; Compound 44 250 mg/kg BID
  % TGI from day 7: 113%
[4]; Compound 44 500 mg/kg BID
  % TGI from day 7: 115%
[5]; single agent, increasing concentrations, WSU-DLCL2 (EZH2 Y641F)
  cell viability: decrease in cell viability; also recorded: reduction of cell growth

## C[C@@H]1C[C@H]2[C@@H]3CCC4=CC(=O)C=C[C@]4(C)[C@@]3(F)[C@@H](O)C[C@]2(C)[C@@]1(O)C(=O)CO [Dexamethasone]
SU-DHL-10 cells
  enhancement of Compound 44 potency (fold IC50 shift): 3 fold
WSU-DLCL2 cells
  enhancement of Compound 44 potency (fold IC50 shift): 17 fold

## COc1cccc2c1C(=O)c1c(O)c3c(c(O)c1C2=O)C[C@@](O)(C(=O)CO)C[C@@H]3O[C@H]1C[C@H](N)[C@H](O)[C@H](C)O1 [Doxorubicin]
SU-DHL-10 cells
  synergy characterization (Chou-Talalay): Synergism
WSU-DLCL2 cells
  synergy characterization (Chou-Talalay): Synergism
Toledo cells
  combination benefit: no combination benefit; also recorded: No enhancement
[5]; [6]
  cell viability, combination with Compound 44: did not exhibit reduced cell viability

## CO[C@H]1C[C@@H]2CC[C@@H](C)[C@@](O)(O2)C(=O)C(=O)N2CCCC[C@H]2C(=O)O[C@H]([C@H](C)C[C@@H]2CC[C@@H](OCCO)[C@H](OC)C2)CC(=O)[C@H](C)/C=C(\C)[C@@H](O)[C@@H](OC)C(=O)[C@H](C)C[C@H](C)/C=C/C=C/C=C/1C [Everolimus]
SU-DHL-10 cells
  synergy characterization (Chou-Talalay): Strong synergism
WSU-DLCL2 cells
  synergy characterization (Chou-Talalay): very strong synergism
Toledo cells
  combination benefit: no combination benefit; also recorded: No enhancement

## C[C@]12C=CC(=O)C=C1CC[C@@H]1[C@@H]2[C@@H](O)C[C@@]2(C)[C@H]1CC[C@]2(O)C(=O)CO [Prednisolone]
SU-DHL-10 cells
  enhancement of Compound 44 potency (fold IC50 shift): 3 fold
RL cells; FIG. 1A schedule
  cell viability, combination with Compound 44: synergistic effect
RL cells
  cell viability: resistant
OCI-LY19 cell line; FIG. 1A schedule
  cell viability, combination with Compound 44: does not have an additional or synergistic effect on cell viability
OCI-LY19 cell line
  cell viability: show sensitivity
WSU-DLCL2 cells
  enhancement of Compound 44 potency (fold IC50 shift): 7 fold
Toledo cells
  combination benefit: no combination benefit; also recorded: No enhancement
[5]; Compound 44 first, then agent alone (FIG. 1B schedule)
  cell viability, combination with Compound 44: additional reduction of cell viability
[5]; [6]
  cell viability, combination with Compound 44: synergistic reduction in cell viability; also recorded: additional reduction of cell growth; also recorded: reduced cell viability
[5]; agent first, then Compound 44 plus agent (FIG. 1C schedule)
  cell viability, combination with Compound 44: did not cause a synergistic effect on cell viability

## CC[C@]1(O)C[C@H]2CN(CCc3c([nH]c4ccccc34)[C@@](C(=O)OC)(c3cc4c(cc3OC)N(C=O)[C@H]3[C@@](O)(C(=O)OC)[C@H](OC(C)=O)[C@]5(CC)C=CCN6CC[C@]43[C@@H]65)C2)C1 [Vincristine]
[5]; [6]
  cell viability, combination with Compound 44: reduced cell viability at the highest concentration Compound 44
